Data set [1] has as its system Calreticulin. The experiment in a line: Calreticulin release (ER to plasma membrane translocation) screen, Nano-Glo HiBiT extracellular detection. Format: cell-based. The conditions noted are these: Homo sapiens, MDA-MB-231, MDA-MB-231 cells stably expressing Calreticulin-HiBiT; extracellular luminescence; read-out: CalR EC50.
Data set [2] has as its system HMGB1. The data set is described as follows: HMGB1 release screen, Nano-Glo HiBiT extracellular detection. The format is cell-based. The following applies: Homo sapiens, MDA-MB-231, MDA-MB-231 cells stably expressing HMGB1-HiBiT; extracellular luminescence.

pEC50: −log10 of the molar value.

19 compounds from patent US20230150978A1, “QUINAZOLINONE DERIVATIVES AND USES THEREOF FOR TREATING A CANCER” (ENYO PHARMA, priority 2020, published 2023) can be followed below.

In general, pEC50 refers to −log10 of the EC50, conventionally taken in molar units. Broadly, the melting point is the temperature, or range, at which the solid turns liquid.

Compound `COc1ccc2nc(CN3CCCc4cccc(OC)c43)[nH]c(=O)c2c1` [Ex. #13, 6-methoxy-2-[(8-methoxy-3,4-dihydro-2H-quinolin-1-yl)methyl]-3H-quinazolin-4-one] showed a melting point of 169 to 183 °C. In data set [1], the pEC50 is 5.94. Besides, the negative-log EC50 (pEC50) in data set [2] is 6.12.
`COc1cccc2c1CN(Cc1nc3ccc(Cl)cc3c(=O)[nH]1)CC2` [Ex. #130, 6-chloro-2-[(8-methoxy-3,4-dihydro-1H-isoquinolin-2-yl)methyl]-3H-quinazolin-4-one] returned a melting point of 195 to 203 °C. The pEC50 in data set [1] is 5.04. Further, the pEC50 in data set [2] was 4.82.
The corresponding values for `CC1(C)CN(Cc2nc3ccc(C#N)cc3c(=O)[nH]2)c2ccccc21` [Ex. #95, 2-[(3,3-dimethylindolin-1-yl)methyl]-4-oxo-3H-quinazoline-6-carbonitrile] are 187 to 197 °C, 5.00 and 4.94.
In the same order, the values of `CC1(C)CN(Cc2nc3ccc(Cl)cc3c(=O)[nH]2)c2ccccc21` [Ex. #40, 6-chloro-2-[(3,3-dimethylindolin-1-yl)methyl]-3H-quinazolin-4-one] are 163 to 176 °C, 6.03 and 5.90.
As to `CC1(C)CN(Cc2nc3cc4c(cc3c(=O)[nH]2)OCO4)c2ccccc21` [Ex. #119, 6-[(3,3-dimethylindolin-1-yl)methyl]-7H-[1,3]dioxolo[4,5-g]quinazolin-8-one], the melting point lay within 199 to 221 °C. For the same compound, the negative logarithm of the EC50 (pEC50) in data set [1] was 5.21. The same compound had a pEC50 in data set [2] of 5.12.
`COc1ccc2nc(CN3CCCc4cccc(F)c43)[nH]c(=O)c2c1` [Ex. #11, 2-[(8-fluoro-3,4-dihydro-2H-quinolin-1-yl)methyl]-6-methoxy-3H-quinazolin-4-one] displayed a melting point of 222 to 236 °C. For the same compound, the pEC50 in data set [1] is 6.99. Besides, the pEC50 in data set [2] was 6.96.
The corresponding values for `O=c1[nH]c(CN2CCc3ccccc32)nc2ccc(F)cc12` [Ex. #88, 6-fluoro-2-(indolin-1-ylmethyl)-3H-quinazolin-4-one] are 184 to 196 °C, 5.12 and 5.33.
The corresponding values for `CN(C)c1cc2c(=O)[nH]c(CN3CC(C)(C)c4ccccc43)nc2cn1` [Ex. #92, 6-(dimethylamino)-2-[(3,3-dimethylindolin-1-yl)methyl]-3H-pyrido[3,4-d]pyrimidin-4-one] are 194 to 211 °C, 7.01 and 6.85.
In the same order, the values of `COc1ccc2nc(CN3CC(CO)c4ccccc43)[nH]c(=O)c2c1` (stereo not drawn) [Ex. #9, 2-[[3-(hydroxymethyl)indolin-1-yl]methyl]-6-methoxy-3H-quinazolin-4-one] are 190 to 209 °C, 4.89 and 4.93.
As to `COCCCOc1ccc2nc(CN3CC(C)(C)c4ccccc43)[nH]c(=O)c2c1` [Ex. #96, 2-[(3,3-dimethylindolin-1-yl)methyl]-6-(3-methoxypropoxy)-3H-quinazolin-4-one], the melting point was 155 to 165 °C. Moreover, the negative logarithm of the EC50 (pEC50) in data set [1] was 5.01. The pEC50 in data set [2] is 4.97.
As for `COc1ccc2nc(CN3CCCCc4ccccc43)[nH]c(=O)c2c1` [Ex. 22, 6-methoxy-2-(2,3,4,5-tetrahydro-1-benzazepin-1-ylmethyl)-3H-quinazolin-4-one], the melting point fell in the range of 191 to 206 °C. The pEC50 in data set [1] is 6.47. Further, the negative logarithm of the EC50 (pEC50) in data set [2] was 6.37.
In the same order, the values of `COc1ccc2nc(CN3CCc4c(cccc4C(F)(F)F)C3)[nH]c(=O)c2c1` [Ex. #125, 6-methoxy-2-[[5-(trifluoromethyl)-3,4-dihydro-1H-isoquinolin-2-yl]methyl]-3H-quinazolin-4-one] are 196 to 206 °C, 5.01 and 4.80.
In the same order, the values of `COc1ccc2nc(CN3CCc4ccc(F)cc43)[nH]c(=O)c2c1` [Ex. #7, 2-[(6-fluoroindolin-1-yl)methyl]-6-methoxy-3H-quinazolin-4-one] are 229 to 235 °C, 6.49 and 6.37.
For `CC(C)(C)OC(=O)NCCCCOc1ccc2nc(CN3CCc4ccccc43)[nH]c(=O)c2c1` [Ex. #90, tert-butyl N-[4-[[2-(indolin-1-ylmethyl)-4-oxo-3H-quinazolin-6-yl]oxy]butyl]carbamate], the melting point was in the range of 167 to 181 °C. The pEC50 in data set [1] is 5.26. The compound further had a pEC50 in data set [2] of 5.06.
The corresponding values for `COc1ccc2nc(CN3CCc4c(cccc4OC)C3)[nH]c(=O)c2c1` [Ex. #17, 6-methoxy-2-[(5-methoxy-3,4-dihydro-1H-isoquinolin-2-yl)methyl]-3H-quinazolin-4-one] are 204 to 218 °C, 6.27 and 5.22.
In the same order, the values of `COc1ccc2nc(CN3CC(C(C)C)c4ccccc43)[nH]c(=O)c2c1` (stereo not drawn) [Ex. #6, 2-[(3-isopropylindolin-1-yl)methyl]-6-methoxy-3H-quinazolin-4-one] are 192 to 208 °C, 6.60 and 6.66.
In the same order, the values of `COc1ccc2nc(CN3CCc4c(N)cccc4C3)[nH]c(=O)c2c1` [Ex. #133, 2-[(5-amino-3,4-dihydro-1H-isoquinolin-2-yl)methyl]-6-methoxy-3H-quinazolin-4-one] are 211 to 233 °C, 5.09 and 4.85.
`COc1ccc2nc(CN3CCc4cccc(F)c43)[nH]c(=O)c2c1` [Ex. #8, 2-[(7-fluoroindolin-1-yl)methyl]-6-methoxy-3H-quinazolin-4-one] showed a melting point of 208 to 227 °C. In addition, in data set [1], the pEC50 is 5.25. In addition, the negative-log EC50 (pEC50) in data set [2] is 5.08.
In the same order, the values of `COc1cccc2c1N(Cc1nc3ccc(Cl)cc3c(=O)[nH]1)CCC2` [Ex. #54, 6-chloro-2-[(8-methoxy-3,4-dihydro-2H-quinolin-1-yl)methyl]-3H-quinazolin-4-one] are 183 to 194 °C, 5.75 and 5.51.
